Literature values, collected in US20250178999A1, “ONE STEP SYNTHESIS OF 1-TETRALONE COMPOUNDS AND USES THEREOF IN THE PREPARATION OF (+)-TETRALONE ABSCISIC ACID (ABA)” (University of Saskatchewan, priority 2022, published 2025).
Read-outs that look alike come from different tables or passages of the source.

Columns and labels:
rice seedling = settings: Han et al 2015
Arabidopsis = settings: for IC50: Vaidya et al 2019, read-out: IC50 in germination of Arabidopsis
lettuce = settings: Han et al 2015
ABA receptors [1] = settings: wheat receptors; Vaidya et al 2019
ABA receptors [2] = settings: Arabidopsis receptors; Vaidya et al 2019
corn cell = settings: Nyangulu et al 2006
[3] = Nyangulu et al 2006
[4] = system: corn cell suspension system; settings: Nyangulu et al 2006

SMILES | IC50 (Arabidopsis) | relative potency of 7 and (+)-5 by receptor subgroup (ABA receptors [1]) | relative potency of 7 and (+)-5 by receptor subgroup (ABA receptors [2]) | other results
CC(=C/C(=O)O)/C=C/C1(O)c2ccccc2C(=O)CC1(C)C (racemic) [(±)-5] | – | – | – | activity in rice seedling growth inhibition assay compared to racemic ABA (rice seedling): higher activity than racemic ABA; activity in seed germination assay in arabidopsis compared to racemic ABA (Arabidopsis; Han et al 2015): higher activity than racemic ABA; activity in seed germination assay in lettuce compared to racemic ABA (lettuce): higher activity than racemic ABA
CC1=CC(=O)CC(C)(C)[C@@]1(O)/C=C/C(C)=C\C(=O)O [(+)-1, (2Z,4E)-5-[(1S)-1-hydroxy-2,6,6-trimethyl-4-oxocyclohex-2-en-1-yl]-3-methylpenta-2,4-dienoic acid, reference compound] | 601 nM | – | – | –
CC(=C/C(=O)O)/C=C/[C@@]1(O)c2ccccc2C(=O)CC1(C)C [(+)-5, (2Z,4E)-5-((S)-1-hydroxy-2,2-dimethyl-4-oxo-1,2,3,4-tetrahydronaphthalen-1-yl)-3-methylpenta-2,4-dienoic acid] | 194 nM | more potent in subgroup II | more potent in subgroup II | activity in seed germination inhibition assay in Arabidopsis compared to ABA (Arabidopsis; Nyangulu et al 2006): higher activity than ABA; activity in corn cell growth inhibition assay compared to ABA (corn cell): higher activity than ABA
N#Cc1c(C2CC2)cc(CC(=O)NC2(C(=O)O)CCCCC2)cc1C1CC1 [Compound 7, opabactin, reference compound] | 62 nM | more the active in subgroup III | more the active in subgroup III | –
CC(=C/C(=O)O)/C=C/[C@@]1(O)c2ccccc2C(=O)C[C@]1(C)CO [Compound 8] | – | – | – | biological activity [3]: retain biological activity; metabolic fate in corn cell suspension system [4]: not converted to a phaseic acid-like compound
